Key:
[1] = tested on: serum HDL cholesterol; experiment: HDL cholesterol determination in cholesterol/cholic acid-fed rats; type: in vivo, Male Sprague-Dawley rats; conditions: Rattus norvegicus, feed or water, 192 h, 8 days, rats fed chow with 0.25% cholic acid and 1.0% cholesterol, FPLC, read-out: HDL Cholesterol Level Increase (%); for change in vivo at 100 mg/kg/day: dose 100 mg/kg/day in diet
Method: The ability of the compounds of this invention to increase blood serum HDL levels was established by the following standard experimental procedure for determination of HDL cholesterol:
Male Sprague-Dawley rats weighing 200-225 g were housed two per cage and fed Purina Rodent Chow Special Mix 5001-S supplemented with 0.25% cholic acid and 1.0% cholesterol and water ad libitum for 8 days. Each test substance is administered to a group of six rats fed the same diet with the test diet mixed in as 0.005-0.1% of the total diet. Body weight and food consumption were recorded prior to diet administration and at termination. Typical doses of the test substances were 5-100 mg/kg/day.
At termination, blood was collected from anesthetized rats and the serum was separated by centrifugation. Total serum cholesterol was assayed using the Sigma Diagnostics enzymatic kit for the determination of cholesterol, Procedure No. 352, modified for use with ninety-six well microtiter plates. After reconstitution with water the reagent contains 300 U/I cholesterol oxidase, 100 U/I cholesterol esterase, 1000 U/I horse radish peroxidase, 0.3 mmoles/l 4-aminoantipyrine and 30.0 mmoles/l p-hydroxybenzenesulfonate in a pH 6.5 buffer. In the reaction cholesterol was oxidized to produce hydrogen peroxide which was used to form a quinoneimine dye. The concentration of dye formed was measured spectrophotometrically by absorbence at 490 nm after incubation at 25° C. for 30 minutes. The concentration of cholesterol was determined for each serum sample relative to a commercial standard from Sigma.
HDL cholesterol concentrations in serum are determined by separation of lipoprotein classes by fast protein liquid chromatography (FPLC) by a modification of the method of Kieft et al., J. Lipid Res., 32 (1991) 859-866. 25 ul of serum was injected onto Superose 12 and Superose 6 (Pharmacia), in series, with a column buffer of 0.05 M Tris (2-amino-2-hydroxymethyl-1,3-propanediol) and 0.15 M sodium chloride at a flow rate of 0.5 ml/min. The eluted sample was mixed on line with Boehringer-Mannheim cholesterol reagent pumped at 0.2 ml/min. The combined eluents are mixed and incubated on line through a knitted coil (Applied Biosciences) maintained at a temperature of 45C. The eluent was monitored by measuring absorbence at 490 nm and gives a continuous absorbence signal proportional to the cholesterol concentration. The relative concentration of each lipoprotein class was calculated as the percent of total absorbence. HDL cholesterol concentration, in serum, was calculated as the percent of total cholesterol as determined by FPLC multiplied by the total serum cholesterol concentration.
Test compounds were administered at the specified dose. Each test substance was administered to a group of six rats. The duration of treatment was eight days.

| melting point [°C] | Compound | change in vivo at 100 mg/kg/day [1] [%] | change in vivo at 85 mg/kg/day ([1]; dose 85 mg/kg/day in diet) [%] |
| --- | --- | --- | --- |
| 141 to 143 | Cc1cc(Cl)ccc1N1C(=O)CON(C)C1=S [Example 1, 4-(4-Chloro-2-methylphenyl)-2-methyl-3-thioxo-[1,2,4]oxadiazinan-5-one] | 221 | – |
| 152 to 154 | CN1OCC(=O)N(C(c2ccccc2)c2ccccc2)C1=S [Example 2, 4-Benzhydryl-2-methyl-3-thioxo-[1,2,4]oxadiazinan-5-one] | 60 | – |
| 100 to 102 | Cc1ccc(Cl)cc1N1C(=O)CON(C)C1=S [Example 3, 4-(5-Chloro-2-methylphenyl)-2-methyl-3-thioxo-[1,2,4]oxadiazinan-5-one] | 236 | – |
| 119 to 121 | CCN1OCC(=O)N(c2cc(Cl)ccc2C)C1=S [Example 4, 4-(5-Chloro-2-methylphenyl)-2-ethyl-3-thioxo-[1,2,4]oxadiazinan-5-one] | – | 136 |
| 135 to 137 | CN1OCC(=O)N(c2ccc3c(c2)CCC3)C1=S [Example 5, 4-Indan-5-yl-2-methyl-3-thioxo-[1,2,4]oxadiazinan-5-one] | 192 | – |
| 104 to 106 | Cc1ccc(C)c(N2C(=O)CON(C)C2=S)c1 [Example 6, 4-(2,5-Dimethylphenyl)-2-methyl-3-thioxo-[1,2,4]oxadiazinan-5-one] | 72 | – |
| 176 to 178 | Cc1cccc(Cl)c1N1C(=O)CON(C)C1=S [Example 7, 4-(2-Chloro-6-methylphenyl)-2-methyl-3-thioxo-[1,2,4]oxadiazinan-5-one] | 100 | – |
| 98 to 101 | CC(C)c1ccccc1N1C(=O)CON(C)C1=S [Example 8, 4-(2-Isopropylphenyl)-2-methyl-3-thioxo-[1,2,4]oxadiazinan-5-one] | 95 | – |
| 168 to 170 | CN1OCC(=O)N(c2ccc(C(C)(C)C)cc2)C1=S [Example 9, 4-(4-tert-Butylphenyl)-2-methyl-3-thioxo-[1,2,4]oxadiazinan-5-one] | 170 | – |
| 159 to 160 | CN1OCC(=O)N(c2ccc(Oc3ccccc3)cc2)C1=S [Example 10, 4-(4-Phenoxyphenyl)-2-methyl-3-thioxo-[1,2,4]oxadiazinan-5-one] | 102 | – |
| 189 to 191 | COc1ccc(Cl)cc1N1C(=O)CON(C)C1=S [Example 11, 4-(5-Chloro-2-methoxyphenyl)-2-methyl-3-thioxo-[1,2,4]oxadiazinan-5-one] | 78 | – |
